Reference: patent US11179381B2, “Intranasal administration of physiologically active substances” (DUTCH RENEWABLE ENERGY B.V., priority 2017, dated 2021)

Legend:
[1] = octanol/water partition coefficient; stated without a test; cited from earlier work
[2] = Blood folate after intranasal spray (Access Folate immunoassay); type: in vivo, human; settings: from average increases of Tables 3 and 4 (3.5 wt. % nicotinamide)
Method: Briefly, a serum specimen was treated to release folate from endogenous binding proteins. After neutralization of the reaction mixture, folate-binding protein, mouse antifolate-binding protein, folic acid-alkaline phosphatase conjugate, and goat antimouse capture antibody coupled to paramagnetic particles were added to the reaction vessel. Folate in the sample competes with the folic acid-alkaline phosphatase conjugate for binding sites on a limited amount of folate-binding protein. Resulting complexes bind to the solid phase via mouse antifolate binding protein. […] The instrument used is a Beckman Coulter DXI 800.

[3] = Blood vitamin B12 after intranasal hydroxocobalmin, 75 μg dose (Access Vitamin B12 assay); settings: from average increases of Tables 7 and 8 (75 μg dose, 5 wt. % nicotinamide)
[4] = Blood vitamin B12 after intranasal hydroxocobalmin, 500 μg dose (Access Vitamin B12 assay); settings: from average increases of Tables 5 and 6 (500 μg dose, 5 wt. % nicotinamide)
[5] = Blood erythropoietin after intranasal rh-Erythropoietin (Access EPO immunoassay); type: in vivo, human; settings: from average increases of Tables 9 and 10 (5 wt. % nicotinamide)
Method: As a control a composition comprising 400 μg rh-Erythropoietin was used.
An immunoassay (Access erythropoietin (EPO), Beckman Coultier Inc.) was used to quantify the erythropoietin. Briefly, testing was performed on the Beckman Coulter DxI 800 (Beckman Coulter Inc.). […] The light production is directly proportional to the concentration of EPO in the sample. The amount of analyte in the sample was determined from a stored, multi-point calibration curve. (Instruction manual: Beckman Coulter Access EPO, Beckman Coulter Access Immunoassay Systems, Beckman Coulter, Inc, Fullerton Calif. 2009).

Compound | log P [1] | Increase in absorption relative to control (absence of nicotinamide) [2] | Increase in absorption relative to control (absence of nicotinamide) [3] | Increase in absorption relative to control (absence of nicotinamide) [4] | Increase in absorption relative to control (absence of nicotinamide) [5]
Nc1nc2ncc(CNc3ccc(C(=O)N[C@@H](CCC(=O)O)C(=O)O)cc3)nc2c(=O)[nH]1 [Folic acid, folic acid] | −0.02 | 184% | – | – | –
C/C1=C2/[N-][C@H]([C@H](CC(N)=O)[C@@]2(C)CCC(=O)NC[C@@H](C)OP(=O)([O-])O[C@H]2[C@@H](O)[C@@H](n3cnc4cc(C)c(C)cc43)O[C@@H]2CO)[C@]2(C)N=C(/C(C)=C3N=C(/C=C4N=C1[C@@H](CCC(N)=O)C\4(C)C)[C@@H](CCC(N)=O)[C@]\3(C)CC(N)=O)[C@@H](CCC(N)=O)[C@]2(C)CC(N)=O.[Co+3].[OH-] [Hydroxocobalamin, hydroxocobalamin] | −0.9 | – | 192% | 203% | –
Erythropoietin: rh-Erythropoietin, molecular weight 34000 | 0 | – | – | – | 300%
